Experimental data taken from ChEMBL document CHEMBL4665787, “Bifunctional and Unusual Amino Acid β- or γ-Ester Prodrugs of Nucleoside Analogues for Improved Affinity to ATB and Enhanced Metabolic Stability: An Application to Floxuridine” (J Med Chem, 2020).
Each block holds one molecule with its values, some of them ahead of it.

How the values were obtained:
[1] = AUC (0 to t) in NOD SCID nude mouse plasma xenografted with ZR-75-1 cells assessed as fluorouracil AUC at 90 mg/kg, iv measured up to 24 hrs by HPLC-MS/MS analysis; type: ADME, organism-based; parameters: route intravenous, dose 90 mg/kg, time <=24; details: in vivo
[2] = target: T1, Solute carrier family 15 member 1 (Homo sapiens, UniProt P46059); test: Substrate activity at PEPT1 (unknown origin) expressed in MDCK cells assessed as PEPT1 mediated drug uptake at 0.5 mM incubated for 10 mins by HPLC analysis; type: ADME, cell-based; details: 500 µM
T1 sequence (P46059 whole entry): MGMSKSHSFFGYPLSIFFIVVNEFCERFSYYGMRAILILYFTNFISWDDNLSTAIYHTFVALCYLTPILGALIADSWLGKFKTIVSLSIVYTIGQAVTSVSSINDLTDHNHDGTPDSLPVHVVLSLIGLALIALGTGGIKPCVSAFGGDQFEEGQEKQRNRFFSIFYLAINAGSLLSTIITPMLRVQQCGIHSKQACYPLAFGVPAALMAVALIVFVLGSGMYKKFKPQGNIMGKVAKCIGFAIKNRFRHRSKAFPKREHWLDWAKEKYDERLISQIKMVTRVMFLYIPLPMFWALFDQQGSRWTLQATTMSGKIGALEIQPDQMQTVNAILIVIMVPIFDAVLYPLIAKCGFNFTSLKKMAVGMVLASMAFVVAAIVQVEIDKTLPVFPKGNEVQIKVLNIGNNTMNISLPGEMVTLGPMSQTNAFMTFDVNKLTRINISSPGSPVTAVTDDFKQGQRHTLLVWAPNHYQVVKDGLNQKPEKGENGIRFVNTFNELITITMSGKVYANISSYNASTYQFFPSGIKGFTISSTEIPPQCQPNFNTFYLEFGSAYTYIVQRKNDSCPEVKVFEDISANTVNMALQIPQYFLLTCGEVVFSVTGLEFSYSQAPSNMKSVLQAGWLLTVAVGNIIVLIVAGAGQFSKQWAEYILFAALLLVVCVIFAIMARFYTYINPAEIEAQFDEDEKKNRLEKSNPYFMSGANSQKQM

[3] = Cmax in NOD SCID nude mouse tumour xenografted with ZR-75-1 cells assessed as floxuridine; 5-fluoro-2-deoxyuridine concentration at 90 mg/kg, iv measured up to 24 hrs by HPLC-MS/MS analysis; type: ADME, organism-based, Neoplasm; parameters: route intravenous, dose 90 mg/kg, time <=24; details: in vivo
[4] = AUC (0 to t) in NOD SCID nude mouse tumour xenografted with ZR-75-1 cells assessed as floxuridine; 5-fluoro-2-deoxyuridine AUC at 90 mg/kg, iv measured up to 24 hrs by HPLC-MS/MS analysis; type: ADME, organism-based, Neoplasm; details: in vivo
[5] = Toxicity in NOD SCID nude mouse xenografted with human MDA-MB-231 cells assessed as body weight at 90 mg/kg, iv for 20 days (reference value: 30.1 +/- 4.1g); type: organism-based; details: in vivo, 480 h, time 20 day
[6] = Cmax in NOD SCID nude mouse plasma xenografted with ZR-75-1 cells assessed as fluorouracil at 90 mg/kg, iv measured up to 24 hrs by HPLC-MS/MS analysis; type: ADME, organism-based; parameters: route intravenous, dose 90 mg/kg, time <=24; details: in vivo
[7] = Drug uptake in MDCK cells incubated for 10 mins by HPLC analysis; type: ADME, cell-based, Canis lupus familiaris; details: dog, 500 µM, dose 0.5 mM
[8] = Toxicity in NOD SCID nude mouse xenografted with human ZR-75-1 cells assessed as body weight at 90 mg/kg, iv for 20 days (reference value: 29.2 +/- 2.5g); type: organism-based; details: in vivo, 480 h, time 20 day
[9] = Ratio of AUC (0 to t) in NOD SCID nude mouse plasma xenografted with ZR-75-1 cells to AUC (0 to t) in NOD SCID mouse tumour xenografted with ZR-75-1 cells; type: ADME, cell-free, Tumor/Plasma
[10] = Half life of compound in human MIA PaCa-2 cell homogenate; type: ADME, tissue-based
[11] = target: T2, Sodium- and chloride-dependent neutral and basic amino acid transporter B(0+) (Homo sapiens, UniProt Q9UN76); test: Substrate activity at SLC6A14 (unknown origin) expressed in Xenopus laevis oocytes assessed as ABT0+ mediated drug uptake at 0.5 mM incubated for 10 mins by HPLC analysis; type: ADME, cell-based; details: oocyte, 500 µM
T2 sequence (Q9UN76 whole entry): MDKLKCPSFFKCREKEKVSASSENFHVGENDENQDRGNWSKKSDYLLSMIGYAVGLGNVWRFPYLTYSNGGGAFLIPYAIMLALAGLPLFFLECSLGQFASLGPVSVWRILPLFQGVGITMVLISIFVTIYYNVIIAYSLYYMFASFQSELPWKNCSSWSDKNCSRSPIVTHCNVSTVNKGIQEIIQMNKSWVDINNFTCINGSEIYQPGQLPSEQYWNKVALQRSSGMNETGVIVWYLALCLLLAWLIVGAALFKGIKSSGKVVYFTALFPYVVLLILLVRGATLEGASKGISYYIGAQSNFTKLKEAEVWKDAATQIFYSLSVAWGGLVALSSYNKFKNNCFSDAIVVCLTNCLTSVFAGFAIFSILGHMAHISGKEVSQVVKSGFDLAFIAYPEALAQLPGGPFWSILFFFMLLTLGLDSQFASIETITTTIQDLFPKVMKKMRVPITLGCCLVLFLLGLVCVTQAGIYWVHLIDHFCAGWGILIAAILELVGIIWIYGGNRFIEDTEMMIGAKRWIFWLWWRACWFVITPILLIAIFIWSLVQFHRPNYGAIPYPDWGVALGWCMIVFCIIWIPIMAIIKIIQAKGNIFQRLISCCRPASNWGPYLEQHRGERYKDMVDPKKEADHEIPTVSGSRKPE

[12] = Drug uptake in Xenopus laevis oocytes at 0.5 mM incubated for 10 mins by HPLC analysis; type: ADME, cell-based; details: oocyte, 500 µM
[13] = Toxicity in NOD SCID nude mouse xenografted with human MIA PaCa-2 cells assessed as body weight at 90 mg/kg, iv for 20 days (reference value: 28.4 +/- 2.1g); type: organism-based; details: in vivo, 480 h, time 20 day
thymidine phosphorylase = test: Half life of compound in thymidine phosphorylase buffer at 300 uM by HPLC analysis; type: physicochemical
[14] = target: T1, Solute carrier family 15 member 1; test: Substrate activity at PEPT1 (unknown origin) expressed in MDCK cells assessed as inhibition of gly-sar uptake incubated for 10 mins by HPLC/MS/MS analysis; type: cell-based
ZR-75-1 = test: Antitumour activity against human ZR-75-1 cells xenografted in NOD SCID nude mouse assessed as tumour inhibition at 90 mg/kg, iv administered for 20 days measured every 2 day by caliper method relative to control; type: functional; details: ZR-75-1, iv, 480 h, time 20 day
[15] = Selectivity ratio of substrate activity at PEPT1 (unknown origin) expressed in MDCK cells assessed as PEPT1 mediated drug uptake to drug uptake in MDCK cells
MIA PaCa-2 = test: Antitumour activity against human MIA-PaCa-2 cells xenografted in NOD SCID nude mouse assessed as tumour inhibition at 90 mg/kg, iv administered for 20 days measured every 2 day by caliper method relative to control; type: functional; details: MIA PaCa-2, iv, 480 h, time 20 day
[16] = AUC (0 to t) in NOD SCID nude mouse plasma xenografted with ZR-75-1 cells at 90 mg/kg, iv measured up to 24 hrs by HPLC-MS/MS analysis; type: ADME, organism-based; parameters: route intravenous, dose 90 mg/kg, time <=24
[17] = Half life of compound in human MDA-MB-231 cell homogenate; type: ADME, tissue-based
[18] = Selectivity ratio of substrate activity at SLC6A14 (unknown origin) expressed in Xenopus laevis oocytes assessed as ABT0+ mediated drug uptake to drug uptake in Xenopus laevis oocytes; parameters: species or system Oocyte
MDA-MB-231 = test: Antitumour activity against human MDA-MB-231 cells xenografted in NOD SCID nude mouse assessed as tumour inhibition at 90 mg/kg, iv administered for 20 days measured every 2 day by caliper method relative to control; type: functional; details: MDA-MB-231, iv, 480 h, time 20 day
[19] = Half life of compound in human ZR-75-1 cell homogenate; type: ADME, tissue-based
[20] = compound: CC(C)[C@H](N)C(=O)OC[C@H]1O[C@@H](n2cc(F)c(=O)[nH]c2=O)C[C@@H]1O; test: (§1) Substrate activity at SLC6A14 (unknown origin) expressed in Xenopus laevis oocytes assessed as Km by measuring ABT0+ mediated drug uptake incubated for 10 mins in presence of glycine by HPLC based Michaelis-Menten analysis; type: cell-based; details: Homo sapiens, Oocyte
[21] = compound: N[C@@H](CC(=O)OC[C@H]1O[C@@H](n2cc(F)c(=O)[nH]c2=O)C[C@@H]1O)C(=O)O; test: as §1; type: cell-based; details: Homo sapiens, Oocyte
[22] = compound: N[C@@H](CCC(=O)OC[C@H]1O[C@@H](n2cc(F)c(=O)[nH]c2=O)C[C@@H]1O)C(=O)O; test: as §1; type: cell-based; details: Homo sapiens, Oocyte
[23] = compound: CC(C)[C@H](N)C(=O)OC[C@H]1O[C@@H](n2cc(F)c(=O)[nH]c2=O)C[C@@H]1O; test: (§2) Substrate activity at SLC6A14 (unknown origin) expressed in Xenopus laevis oocytes assessed as Vmax by measuring ABT0+ mediated drug uptake incubated for 10 mins in presence of glycine by HPLC based Michaelis-Menten analysis; type: cell-based; details: Homo sapiens, Oocyte
[24] = compound: N[C@@H](CC(=O)OC[C@H]1O[C@@H](n2cc(F)c(=O)[nH]c2=O)C[C@@H]1O)C(=O)O; test: as §2; type: cell-based; details: Homo sapiens, Oocyte
[25] = compound: N[C@@H](CCC(=O)OC[C@H]1O[C@@H](n2cc(F)c(=O)[nH]c2=O)C[C@@H]1O)C(=O)O; test: as §2; type: cell-based; details: Homo sapiens, Oocyte

AUCt [1]: 4107.2 ng·h/mL | Drug uptake [2]: < 0.04 nmol/mg/min | Cmax [3]: 374.4 ng/g | AUCt [4]: 1877.1 ng·h/g | Cmax [6]: 434.1 ng/mL | Drug uptake [7]: < 0.04 nmol/mg/min | Ratio [9]: 0.5 | half-life [10]: 15.6 min | Drug uptake [11]: < 0.04 nmol/mg/min | Drug uptake [12]: < 0.04 nmol/mg/min | half-life at 300 µM (thymidine phosphorylase): 10.2 min | IC50 [14]: 12.2 mM | AUC(0-t) at 24 h [16]: 3420 ng·h/mL | half-life [17]: 23.1 min | half-life [19]: 13.2 min
Molecule: O=c1[nH]c(=O)n([C@H]2C[C@H](O)[C@@H](CO)O2)cc1F [FLOXURIDINE]
Activity [5]: 28.4 g | Activity [8]: 25.8 g | Activity [13]: 24.7 g | inhibition in vivo at 90 mg/kg (ZR-75-1): 36.1% | Ratio [15]: 1 | inhibition in vivo at 90 mg/kg (MIA PaCa-2): 41.3% | Ratio [18]: 1 | inhibition in vivo at 90 mg/kg (MDA-MB-231): 36.9%

B1: Sodium- and chloride-dependent neutral and basic amino acid transporter B(0+) (Homo sapiens), Q9UN76 (protein)
chain: T2 sequence (Q9UN76 whole entry)
Km [20]: 54.6 µM | Km [21]: 35.6 µM | Km [22]: 84 µM | Vmax [23]: 278 pmol/mg/min | Vmax [24]: 201 pmol/mg/min | Vmax [25]: 235 pmol/mg/min
